In PMC2749524 (Cancer research, 2009):

What was measured:
[1] = system: U87MG xenografts (tumor glucose metabolism); test: FDG microPET/CT tumor uptake in U87MG xenografts
[2] = system: Src family kinases / Focal Adhesion Kinase phosphorylation in U87MG cells; test: Western blot of phospho-Src, phospho-FAK and β3 in U87MG cell lysates; format: cell-based, human; conditions: 100 nM
U87MG xenografts [3] = test: Histology and immunohistochemistry of frozen tumor sections; format: in vivo, SCID mice; conditions: 95 mg/kg, 72 h
U87MG xenografts [4] = test: U87MG xenograft tumor growth; format: in vivo, SCID mice
[5] = system: αVβ3 focal adhesions in U87MG cells; test: Immunofluorescence of dimerized αVβ3; format: cell-based, human; conditions: 100 nM, 3 h, U87MG on fibronectin
[6] = system: U87MG xenografts (αVβ3 integrin activity); test: microPET/CT tumor uptake of [^64Cu]DOTA–c; format: in vivo, SCID mice; conditions: 72 h; for reduction of [^64Cu]DOTA–c(RGDfK) tumor uptake: vs vehicle controls, PET 15 h post injection
[7] = system: αVβ3 integrin on U87MG cells; test: Flow cytometry of surface αVβ3 integrin expression; format: cell-based, human; conditions: 100 nM, 6 or 24 h, FACS, LM609 antibody, samples in duplicate

Row | SMILES | tumor FDG uptake in vehicle controls ([1]; U87MG xenograft, 7–10 MBq FDG, 1 h uptake, mean ± SD) | total β3 levels ([2]; 6 or 24 h) | FAK phosphorylation at tyrosine 397 ([2]; 6 h) | FAK phosphorylation at tyrosine 861 ([2]; 6 h) | SFK phosphorylation at tyrosine 416 ([2]; 6 h) | tumor viability and vascularization (H&E, CD31) (U87MG xenografts [3]) | phospho-FAK (Y861) staining in tumors (U87MG xenografts [3]; immunohistochemistry, relative to control) | αVβ3 staining in tumors (U87MG xenografts [3]; treated vs control, LM609 antibody) | difference in tumor size between control and treated animals (U87MG xenografts [4]; after 10 consecutive days of treatment) | difference in tumor size at the time of PET imaging (U87MG xenografts [4]; day 3, p=0.1272) | αVβ3 clustering in focal adhesion complexes [5] | reduction of [^64Cu]DOTA–c(RGDfK) tumor uptake ([6]; 72 mg/kg daily gavage) | reduction of [^64Cu]DOTA–c(RGDfK) tumor uptake ([6]; 95 mg/kg daily gavage) | tracer distribution and organ uptake, treated vs untreated animals ([6]; 95 mg/kg, dynamic PET, normal organs, except U87 xenografts) | change in tumor FDG uptake ([1]; 95 mg/kg, 72 h, p=0.1704) | total dimerized cell surface αVβ3 protein level [7]
1 | OC[C@H]1OC(O)[C@H]([18F])[C@@H](O)[C@@H]1O (stereo partly shown) [FDG, [^18F]fluorodeoxyglucose] | 10.39±1.04 % ID/g | – | – | – | – | – | – | – | – | – | – | – | – | – | – | –
2 | Cc1nc(Nc2ncc(C(=O)Nc3c(C)cccc3Cl)s2)cc(N2CCN(CCO)CC2)n1 [dasatinib] | – | nor did total β3 levels decrease | decrease | target inhibition | target inhibition | remained viable and vascularized | reduced | no difference | six-fold | no appreciable difference | no longer clustered in focal adhesion complexes | 39% | 59% | virtually identical | no significant change | did not change relative to control
